“And” between values parts separate entries of the source, which are not always exact repeats. Equal entries are not always repeated. “Also recorded” adds a separate entry of the source. Where two headings read alike, the source gives them in different places. Marks after values point to notes of the source that are not given here.
Columns and labels:
[1] = in vivo, 300 mg
[2] = human, in vivo
[3] = set-up: method as in PMID 15844071; conditions: cited from earlier work
[4] = clinical; conditions: human, plasma, oral, 300 mg
[5] = Tolerability and safety of rifabutin and LPV/r: clinical and laboratory adverse events (DAIDS grading)
[6] = Steady-state plasma pharmacokinetics of rifabutin and 25-O-desacetylrifabutin with and without LPV/r-based ART (three-period crossover, LC/MS/MS, non-compartmental analysis); conditions: for AUC(0-t): human, plasma, oral, median (interquartile range), n = 14
[7] = Steady-state plasma pharmacokinetics of lopinavir given with two rifabutin doses (LCMS/MS, non-compartmental analysis); conditions: for AUC(0-t): human, plasma, oral, Median (Interquartile range), 14 patients
[8] = RBT dose at time of AE 150 mg daily (with LPV/r ART), listed as RBT
[9] = RBT dose at time of AE 150 mg tiw (with LPV/r ART), listed as RBT
[10] = sixteen patients, all rifabutin doses

25-O-desacetylrifabutin [d-RBT]
AUC0–48 [1]: 546.6 (471.4-688.2)^* ng.h/mL | Association between plasma concentration and adverse events such as neutropenia or elevated transaminases [2]: unable to show a significant association

CO[C@H]1/C=C/O[C@@]2(C)Oc3c(C)c(O)c4c(c3C2=O)C2=NC3(CCN(CC(C)C)CC3)NC2=C(NC(=O)/C(C)=C\C=C\[C@H](C)[C@H](O)[C@@H](C)[C@@H](O)[C@@H](C)[C@H](OC(C)=O)[C@@H]1C)C4=O [Rifabutin, rifabutin]
Patients who relapsed or failed therapy that developed ARR ([3]; TB-HIV co-infected patients with AUC0–24 < 4.5 μg.h/mL): 83% | Patients who relapsed or failed therapy that developed ARR ([3]; TB-HIV co-infected patients with AUC above the threshold of 4.5 μg.h/mL): 33% | Cmax [4]: 292 ng/mL | AE (grade 3 laboratory adverse event, individual subject) [5, 8]: Neutropenia; also recorded: AST increased; also recorded: Amylase increased | Days on RBT at grade 3 laboratory AE (individual subject) [5, 8]: 53 days and 77 days and 106 days and 113 days and 57 days | AE (grade 3 laboratory adverse event, individual subject) [5, 9]: AST increased; also recorded: Amylase increased; also recorded: Neutropenia | Days on RBT at grade 3 laboratory AE (individual subject) [5, 9]: 96 days and 119 days and 112 days | AE (grade 3 laboratory adverse event, individual subject) ([5]; RBT dose at time of AE 300 mg daily): Neutropenia | Days on RBT at grade 3 laboratory AE (individual subject) ([5]; RBT dose at time of AE 300 mg daily, listed as RBT): 29 days and 27 days and 28 days | Grade 4 laboratory toxicities / events ([5]; all doses, sixteen patients): no grade 4 laboratory toxicities | Tolerability ([5]; all doses, sixteen patients): well tolerated | Grade 4 laboratory toxicities / events ([5]; all doses, sixteen patients, listed as rifabutin): no grade 4 laboratory events | Association between plasma concentration and adverse events such as neutropenia or elevated transaminases ([5]; human, in vivo): unable to show a significant association | Uveitis ([5]; patient taking rifabutin 300 mg daily, after 1 month of rifabutin, prior to / coinciding with start of ART): One case of uveitis (grade 4); also recorded: Grade 2 uveitis occurred in one patient | Serious adverse events ([5]; sixteen patients): two serious adverse events (bacterial meningitis and pyelonephritis), both considered unrelated to rifabutin | Grade 3 elevations in transaminases and amylase, number [5, 10]: 2 | Grade 3 neutropenia, number of occasions [5, 10]: 7 occasions | Grade 3 neutropenia, number of patients [5, 10]: 4 patients and 5 patients | GMR (90% CI) of Cmin24h ([6]; RBT 150 mg daily (with LPV/r ART) with RBT 300 mg daily): 2.7 (2.2 – 3.2) | GMR (90% CI) of Cmin24h ([6]; RBT 150 mg tiw (with LPV/r ART) with RBT 300 mg daily): 1.2 (1.0 – 1.4) | GMR (90% CI) of Cmin24h ([6]; RBT 150 mg tiw with RBT 150 mg daily (both with LPV/r ART)): 0.5 (0.4 – 0.5) | Increase in AUC0–24 ([6]; daily dose of 150 mg compared to the three times a week dose, both with LPV/r): more than two fold increase | AUC(0-t) ([6]; 150 mg, AUC0–24, Rifabutin 150 mg daily plus LPV/r, steady state): 4770 ng·h/mL | AUC(0-t) ([6]; 150 mg, AUC0–24, Rifabutin 150 mg tiw plus LPV/r, steady state): 2310 ng·h/mL | AUC(0-t) ([6]; 150 mg, AUC0–48, Rifabutin 150 mg daily plus LPV/r, calculated by 2X AUC0–24): 9530 ng·h/mL | AUC(0-t) ([6]; 300 mg, AUC0–24, Rifabutin 300 mg daily without LPV/r, steady state): 3050 ng·h/mL | AUC(0-t) ([6]; 300 mg, AUC0–48, Rifabutin 300 mg daily without LPV/r, calculated by 2X AUC0–24): 6110 ng·h/mL | Patients with AUC0–24 values >4.5 μg.h/mL ([6]; rifabutin 150 mg daily with LPV/r): 71% | Patients with AUC0–24 values >4.5 μg.h/mL ([6]; rifabutin tiw dosing with LPV/r): 14% | Patients with AUC0-24 < 4.5 μg.h/mL ([6]; tiw rifabutin arm (150 mg tiw with LPV/r)): 86%

Cc1cccc(C)c1OCC(=O)N[C@@H](Cc1ccccc1)[C@@H](O)C[C@H](Cc1ccccc1)NC(=O)[C@H](C(C)C)N1CCCNC1=O [lopinavir]
Median lopinavir trough (C0) concentrations versus recommended lower limit for ART-naïve patients ([7]; both rifabutin doses): > 1 µg | AUC(0-t) ([7]; AUC0–12, RBT 150 mg daily plus LPV/r (400/100 mg)): 160000 ng·h/mL | AUC(0-t) ([7]; AUC0–12, RBT 150 mg tiw plus LPV/r (400/100 mg)): 140000 ng·h/mL | Differences in AUC0–12 and Cmax between the two doses of rifabutin ([7]; rifabutin 150 mg daily versus 150 mg tiw): not significant

— article PMC4277828 (BMC Pharmacology & Toxicology, 2014)
